# In the supplement of paper PMC10307832:
# How the values were obtained:
# Assay in all cases: relative viability (nuclei count vs DMSO), 5 days (fraction); higher = more cells survive
# NCI-H322M = test system: NCI-H322M
# In short: (§1)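 Each reported value is a median over duplicate plates. It expresses relative viability: treated-well nuclei count divided by vehicle-well nuclei count. Lung cancer cell lines in 1536-well plates were dosed by pin tool a day after seeding, alone with one drug or with a fixed anchor-drug dose plus five library-drug doses (not always all listed) in √10 steps, and nuclei were counted after 5 days.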
# 201T = test system: 201T
# In short: as §1
# HCC-827 = test system: HCC-827
# In short: as §1
# NCI-H650 = test system: NCI-H650
# In short: as §1
# EPLC-272H = test system: EPLC-272H
# In short: as §1
# NCI-H2126 = test system: NCI-H2126
# In short: as §1
# NCI-H647 = test system: NCI-H647
# In short: as §1
# NCI-H661 = test system: NCI-H661
# In short: as §1
# COR-L 105 = test system: COR-L 105
# In short: as §1
# LC-2-ad = test system: LC-2-ad
# In short: as §1
# NCI-H23 = test system: NCI-H23
# In short: as §1
# LCLC-97TM1 = test system: LCLC-97TM1
# In short: as §1
# RERF-LC-KJ = test system: RERF-LC-KJ
# In short: as §1
# NCI-H1915 = test system: NCI-H1915
# In short: as §1
# H3255 = test system: H3255
# In short: as §1
# NCI-H2405 = test system: NCI-H2405
# In short: as §1
# NCI-H2087 = test system: NCI-H2087
# In short: as §1
# NCI-H2347 = test system: NCI-H2347
# In short: as §1
# NCI-H520 = test system: NCI-H520
# In short: as §1
# PC-14 = test system: PC-14
# In short: as §1
# ChaGo-K-1 = test system: ChaGo-K-1
# In short: as §1
# NCI-H1666 = test system: NCI-H1666
# In short: as §1
# HCC-78 = test system: HCC-78
# In short: as §1
compound,measurement,setting,value
CC1(C)CCC(c2ccc(Cl)cc2)=C(CN2CCN(c3ccc(C(=O)NS(=O)(=O)c4ccc(N[C@H](CCN5CCOCC5)CSc5ccccc5)c(S(=O)(=O)C(F)(F)F)c4)cc3)CC2)C1 [Navitoclax] + O=C(c1cc(Cc2n[nH]c(=O)c3ccccc23)ccc1F)N1CCN(C(=O)C2CC2)CC1 [Olaparib] (partner 8 µM),relative viability,NCI-H322M; first compound 0.005 µM,0.8
same,relative viability,NCI-H322M; first compound 0.01581 µM,0.984
same,relative viability,NCI-H322M; first compound 0.05 µM,0.754
same,relative viability,NCI-H322M; first compound 0.1581 µM,0.725
same,relative viability,NCI-H322M; first compound 0.5 µM,0.934
same,relative viability,201T; first compound 0.005 µM,0.829
same,relative viability,201T; first compound 0.01581 µM,0.871
same,relative viability,201T; first compound 0.05 µM,0.806
same,relative viability,201T; first compound 0.1581 µM,0.832
same,relative viability,201T; first compound 0.5 µM,0.85
same,relative viability,HCC-827; first compound 0.005 µM,0.714
same,relative viability,HCC-827; first compound 0.01581 µM,0.669
same,relative viability,HCC-827; first compound 0.05 µM,0.531
same,relative viability,HCC-827; first compound 0.1581 µM,0.638
same,relative viability,HCC-827; first compound 0.5 µM,0.632
same,relative viability,NCI-H650; first compound 0.005 µM,0.395
same,relative viability,NCI-H650; first compound 0.01581 µM,0.453
same,relative viability,NCI-H650; first compound 0.05 µM,0.35
same,relative viability,NCI-H650; first compound 0.1581 µM,0.362
same,relative viability,NCI-H650; first compound 0.5 µM,0.386
same,relative viability,EPLC-272H; first compound 0.005 µM,0.877
same,relative viability,EPLC-272H; first compound 0.01581 µM,0.79
same,relative viability,EPLC-272H; first compound 0.05 µM,0.644
same,relative viability,EPLC-272H; first compound 0.1581 µM,0.714
same,relative viability,EPLC-272H; first compound 0.5 µM,1.18
same,relative viability,NCI-H2126; first compound 0.005 µM,0.912
same,relative viability,NCI-H2126; first compound 0.01581 µM,0.994
same,relative viability,NCI-H2126; first compound 0.05 µM,0.847
same,relative viability,NCI-H2126; first compound 0.1581 µM,0.86
same,relative viability,NCI-H2126; first compound 0.5 µM,0.9
same,relative viability,NCI-H647; first compound 0.005 µM,0.47
same,relative viability,NCI-H647; first compound 0.01581 µM,0.605
same,relative viability,NCI-H647; first compound 0.05 µM,0.498
same,relative viability,NCI-H647; first compound 0.1581 µM,0.471
same,relative viability,NCI-H647; first compound 0.5 µM,0.288
same,relative viability,NCI-H661; first compound 0.005 µM,0.751
same,relative viability,NCI-H661; first compound 0.01581 µM,0.797
same,relative viability,NCI-H661; first compound 0.05 µM,0.712
same,relative viability,NCI-H661; first compound 0.1581 µM,0.695
same,relative viability,NCI-H661; first compound 0.5 µM,0.751
same,relative viability,COR-L 105; first compound 0.005 µM,0.707
same,relative viability,COR-L 105; first compound 0.01581 µM,0.749
same,relative viability,COR-L 105; first compound 0.05 µM,0.664
same,relative viability,COR-L 105; first compound 0.1581 µM,0.614
same,relative viability,COR-L 105; first compound 0.5 µM,0.666
same,relative viability,LC-2-ad; first compound 0.005 µM,0.729
same,relative viability,LC-2-ad; first compound 0.01581 µM,0.744
same,relative viability,LC-2-ad; first compound 0.05 µM,0.654
same,relative viability,LC-2-ad; first compound 0.1581 µM,0.698
same,relative viability,LC-2-ad; first compound 0.5 µM,0.701
same,relative viability,NCI-H23; first compound 0.005 µM,0.328
same,relative viability,NCI-H23; first compound 0.01581 µM,0.301
same,relative viability,NCI-H23; first compound 0.05 µM,0.272
same,relative viability,NCI-H23; first compound 0.1581 µM,0.291
same,relative viability,NCI-H23; first compound 0.5 µM,0.343
same,relative viability,LCLC-97TM1; first compound 0.005 µM,0.34
same,relative viability,LCLC-97TM1; first compound 0.01581 µM,0.599
same,relative viability,LCLC-97TM1; first compound 0.05 µM,0.243
same,relative viability,LCLC-97TM1; first compound 0.1581 µM,0.409
same,relative viability,LCLC-97TM1; first compound 0.5 µM,0.445
same,relative viability,RERF-LC-KJ; first compound 0.005 µM,0.887
same,relative viability,RERF-LC-KJ; first compound 0.01581 µM,0.796
same,relative viability,RERF-LC-KJ; first compound 0.05 µM,0.917
same,relative viability,RERF-LC-KJ; first compound 0.1581 µM,0.861
same,relative viability,RERF-LC-KJ; first compound 0.5 µM,0.983
same,relative viability,NCI-H1915; first compound 0.005 µM,0.253
same,relative viability,NCI-H1915; first compound 0.01581 µM,0.247
same,relative viability,NCI-H1915; first compound 0.05 µM,0.215
same,relative viability,NCI-H1915; first compound 0.1581 µM,0.261
same,relative viability,NCI-H1915; first compound 0.5 µM,0.254
same,relative viability,H3255; first compound 0.005 µM,0.563
same,relative viability,H3255; first compound 0.01581 µM,0.626
same,relative viability,H3255; first compound 0.05 µM,0.57
same,relative viability,H3255; first compound 0.1581 µM,0.57
same,relative viability,H3255; first compound 0.5 µM,0.506
same,relative viability,NCI-H2405; first compound 0.005 µM,0.803
same,relative viability,NCI-H2405; first compound 0.01581 µM,0.881
same,relative viability,NCI-H2405; first compound 0.05 µM,0.953
same,relative viability,NCI-H2405; first compound 0.1581 µM,0.801
same,relative viability,NCI-H2405; first compound 0.5 µM,0.739
same,relative viability,NCI-H2087; first compound 0.005 µM,0.69
same,relative viability,NCI-H2087; first compound 0.01581 µM,0.632
same,relative viability,NCI-H2087; first compound 0.1581 µM,0.638
same,relative viability,NCI-H2087; first compound 0.5 µM,0.598
same,relative viability,NCI-H2347; first compound 0.005 µM,0.558
same,relative viability,NCI-H2347; first compound 0.01581 µM,0.585
same,relative viability,NCI-H2347; first compound 0.05 µM,0.537
same,relative viability,NCI-H2347; first compound 0.1581 µM,0.61
same,relative viability,NCI-H2347; first compound 0.5 µM,0.51
same,relative viability,NCI-H520; first compound 0.005 µM,0.346
same,relative viability,NCI-H520; first compound 0.01581 µM,0.299
same,relative viability,NCI-H520; first compound 0.05 µM,0.336
same,relative viability,NCI-H520; first compound 0.1581 µM,0.318
same,relative viability,NCI-H520; first compound 0.5 µM,0.33
same,relative viability,PC-14; first compound 0.005 µM,0.266
same,relative viability,PC-14; first compound 0.01581 µM,0.28
same,relative viability,PC-14; first compound 0.05 µM,0.283
same,relative viability,PC-14; first compound 0.1581 µM,0.219
same,relative viability,PC-14; first compound 0.5 µM,0.235
same,relative viability,ChaGo-K-1; first compound 0.005 µM,0.445
same,relative viability,ChaGo-K-1; first compound 0.01581 µM,0.472
same,relative viability,ChaGo-K-1; first compound 0.05 µM,0.28
same,relative viability,ChaGo-K-1; first compound 0.1581 µM,0.453
same,relative viability,ChaGo-K-1; first compound 0.5 µM,0.461
same,relative viability,NCI-H1666; first compound 0.005 µM,0.749
same,relative viability,NCI-H1666; first compound 0.01581 µM,0.71
same,relative viability,NCI-H1666; first compound 0.05 µM,0.683
same,relative viability,NCI-H1666; first compound 0.1581 µM,0.765
same,relative viability,NCI-H1666; first compound 0.5 µM,0.822
same,relative viability,HCC-78; first compound 0.005 µM,0.844
same,relative viability,HCC-78; first compound 0.01581 µM,0.776
same,relative viability,HCC-78; first compound 0.05 µM,0.696
same,relative viability,HCC-78; first compound 0.1581 µM,0.925
same,relative viability,HCC-78; first compound 0.5 µM,0.863
